These results are taken from patent publication US20230039711A1, “AHR INHIBITORS AND USES THEREOF” (Ikena Oncology, Inc., priority 2020, published 2023).

The nature of series [1]: Nonclinical safety studies incl. 28-day GLP study in monkeys. Type of series: in vivo, monkey.
A short description of series [2]: Nonclinical safety studies incl. 28-day GLP study in rat. Type of series: in vivo. Conditions: rats.
In series [3] the test system is other receptors, transporters, and kinases. The series can be described thus: Selectivity for AHR over other receptors, transporters, and kinases.
A short description of series [4]: Nonclinical safety, single-dose and repeated-dose toxicological studies in rodent and non-rodent species. Type of series: in vivo. The conditions noted are these: species not specified for these findings.
For the next series, the target named is T1, AHR (Homo sapiens, UniProt P35869).
T1 construct: host or cells: in vivo tumor models (not specified)
T1 sequence (P35869 11-848): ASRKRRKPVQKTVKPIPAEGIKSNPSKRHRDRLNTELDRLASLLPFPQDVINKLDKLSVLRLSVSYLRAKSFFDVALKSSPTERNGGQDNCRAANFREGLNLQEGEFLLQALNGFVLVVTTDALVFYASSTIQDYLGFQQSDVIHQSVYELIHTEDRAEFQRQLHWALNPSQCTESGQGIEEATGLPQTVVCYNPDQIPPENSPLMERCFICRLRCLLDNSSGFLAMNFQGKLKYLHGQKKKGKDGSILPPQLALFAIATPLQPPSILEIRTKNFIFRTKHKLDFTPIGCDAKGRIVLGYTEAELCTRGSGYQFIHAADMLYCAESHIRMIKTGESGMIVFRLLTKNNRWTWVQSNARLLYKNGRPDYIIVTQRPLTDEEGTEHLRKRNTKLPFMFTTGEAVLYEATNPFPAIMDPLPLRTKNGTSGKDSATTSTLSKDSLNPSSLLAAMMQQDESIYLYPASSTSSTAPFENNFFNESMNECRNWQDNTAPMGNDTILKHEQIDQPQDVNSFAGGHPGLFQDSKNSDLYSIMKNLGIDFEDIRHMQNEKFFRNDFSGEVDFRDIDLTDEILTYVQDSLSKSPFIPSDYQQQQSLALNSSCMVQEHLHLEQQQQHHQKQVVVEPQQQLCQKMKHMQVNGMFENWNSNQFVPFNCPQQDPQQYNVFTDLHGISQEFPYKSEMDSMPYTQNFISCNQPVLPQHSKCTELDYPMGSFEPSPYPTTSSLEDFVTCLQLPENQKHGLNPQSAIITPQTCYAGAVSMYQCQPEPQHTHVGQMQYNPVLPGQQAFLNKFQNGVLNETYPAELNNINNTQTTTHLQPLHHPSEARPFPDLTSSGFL
Kind of series: AHR translocation from cytoplasm to nucleus in the presence of a ligand, and downstream signaling in in vivo tumor models.

For a further series, the system named is human T cell. The series can be described thus: Human T cell assays. Type of series: cell-based.
A short description of series [5]: Monotherapy dosing in human patients, safety. Type of series: in vivo. The conditions noted are these: 200 mg, 400 mg, 800 mg, and 1200 mg once daily (QD).

For `CC(C)c1cnn2c(N[C@@H]3CCc4[nH]c5ccccc5c4C3)nc(-c3cncc(F)c3)nc12` [Compound A, (R)-N-(2-(5-fluoropyridin-3-yl)-8-isopropylpyrazolo[1,5-a][1,3,5]triazin-4-yl)-2,3,4,9-tetrahydro-1H-carbazol-3-amine], the “thymus weights and cortical lymphocytes” value in series [1] (monkey) is reported as “decreased”. Also, the QTc prolongation result in series [1] (monkeys) is on record as “up to 11%”. For the same compound, the stomach findings result in series [2] was “nonglandular stomach ulceration and edema”. The testicular findings entry in series [2] (not resolved after 2 weeks of dosing cessation) is “seminiferous tubule degeneration and debris in the epididymis lumen”. Moreover, the “selectivity for AHR over other receptors, transporters, and kinases” value in series [3] is “highly selective for AHR”. The “noteworthy findings of potential relevance to humans (general)” value in series [4] is on record as “emesis, loose stool, dehydration, body weight loss”. For the same compound, at AHR, the “AHR translocating from the cytoplasm to the nucleus and downstream signaling” value is reported as “effectively blocks”. For the same compound, in the series on human T cell, the CYP1A1 gene expression result is “inhibits”, the T cell state result is reported as “induces an activated T cell state”, the “interleukin (IL)-22 gene expression” value is listed as “inhibits” and the “pro-inflammatory cytokine IL-2” value is recorded as “increase”. In addition, the “pro-inflammatory cytokine IL-9” value in the series on human T cell is “increase”. Further, the “serious adverse events (SAEs)” value in series [5] is recorded as “no serious adverse events”.
